Test results published in patent US9340803B2, “3-hydroxypropionic acid and other organic compounds” (Cargill, Incorporated, priority 2000, dated 2016).

Tests used:
[1] = system: 3-hydroxypropionyl-CoA dehydratase (OS19); assay: 3-hydroxypropionyl-CoA dehydratase specificity control reactions, MALDI-TOF MS; assay type: biochemical, Chloroflexus aurantiacus; settings: 1 mM CoA ester, 80% D2O
Description: Cell free extracts were prepared by growing cells as described above. The cells were harvested by centrifugation and disrupted by sonication. The sonicated cell suspension was centrifuged to remove cell debris, and the supernatant was used in the assays. The ability of the 3-hydroxypropionyl-CoA dehydratase to perform the following three reactions was measured using MALDI-TOF MS:
The assay mixture contained 50 mM Tris-HCl (pH 7.5), 1 mM CoA ester, and about 1 μg cell free extract. Reactions were allowed to proceed at room temperature and were stopped by adding 1 volume 10% trifluroacetic acid (TFA). The reaction mixtures were purified prior to MALDI-TOF MS analysis using Sep Pak Vac C18 50 mg columns (Waters, Inc.). The columns were conditioned with 1 mL methanol and then equilibrated with two washes of 1 mL 0.1% TFA. The sample was applied to the column, and the flow through was discarded. The column was washed twice with 1 mL 0.1% TFA. The sample was eluted in 200 μL 40% acetonitrile, 0.1% TFA. The acetonitrile was removed by centrifugation in vacuo. Samples were prepared for MALDI-TOF MS analysis by mixing 1:1 with 110 mM sinapinic acid in 0.1% TFA, 67% acetonitrile. The samples were allowed to air dry.
A series of control reactions were performed to confirm the specificity of the 3-hydroxypropionyl-CoA dehydratase. […]

[2] = system: CoA transferase (propionyl-CoA transferase or pct) from Megasphaera elsdenii; assay: CoA transferase activity assay (DTNB/citrate synthase coupled, OD 412 nm) with cell free extract; assay type: biochemical; settings: 25 μM CoA-ester substrate, 200 mM sodium acetate, pH 7.0; cell free extract of E. coli expressing the CoA transferase
Description: The plasmid was transformed into Tuner (DE3) pLacI chemically competent cells (Novagen, Madison, Wis.), and expression from the construct tested. Briefly, a culture was grown overnight to saturation and diluted 1:20 the following morning in fresh LB medium with the appropriate antibiotics. The culture was grown at 37° C. with aeration to an OD600 of about 0.6. The culture was induced with IPTG at a final concentration of 100 μM. The culture was incubated for an additional two hours at 37° C. with aeration. Aliquots were taken pre-induction and 2 hours post-induction for SDS-PAGE analysis. A band of the expected molecular weight (55,653 Daltons predicted from the sequence) was observed after IPTG treatment. This band was not observed in cells containing a plasmid lacking the nucleic acid encoding the transferase.
Cell free extracts were prepared to assess enzymatic activity. Briefly, the cells were harvested by centrifugation and disrupted by sonication. The sonicated cell suspension was centrifuged to remove cell debris, and the supernatant was used in the assays.
Transferase activity was measured in the following assay. The assay mixture used contained 100 mM potassium phosphate buffer (pH 7.0), 200 mM sodium acetate, 1 mM dithiobisnitrobenzoate (DTNB), 500 μM oxaloacetate, 25 μM CoA-ester substrate, and 3 μg/mL citrate synthase. If present, the CoA transferase transfers the CoA from the CoA ester to acetate to form acetyl-CoA. The added citrate synthase condenses oxaloacetate and acetyl-CoA to form citrate and free CoASH. The free CoASH complexes with DTNB, and the formation of this complex can be measured by a change in the optical density at 412 nm. The activity of the CoA transferase was measured using the following substrates: lactyl-CoA, propionyl-CoA, acrylyl-CoA, and 3-hydroxypropionyl-CoA. The units/mg of protein was calculated using the following formula: (ΔE/min*Vf*dilution factor)/(VS*14.2)=units/mL where ΔE/min is the change in absorbance per minute at 412 nm, Vf is the final volume of the reaction, and VS is the volume of sample added. The total protein concentration of the cell free extract was about 1 mg/mL so the units/mL equals units/mg.

[3] = OS17 polypeptide activity, disappearance of NAD(P)H at 340 nm; assay type: biochemical, Chloroflexus aurantiacus; settings: 3-HP 1 mM as substrate; protein extract of BL21-DE3/pET11a-OS17
Description: To assay OS17 polypeptide function, a 100 mL culture of BL21-DE3/pET11a-OS17 cells was started using 1 mL of overnight grown culture as an inoculum. The culture was grown to an OD of 0.5-0.6 and was induced with 100 μM IPTG. After two and a half hours of induction, the cells were harvested by spinning at 8000 rpm in the floor centrifuge. The cells were washed with 10 mM Tris-HCl (pH 7.8) and passed twice through a French Press at a gauge pressure of 1000 psi. The cell debris was removed by centrifugation at 15,000 rpm. The activity of the OS17 polypeptide was measured spectrophotometrically, and the products formed during this enzymatic transformation were detected by LC/MS. The assay mix was as follows (J. Bacteriol., 181:1088-1098 (1999)):
The initial rate of reaction was measured by monitoring the disappearance of NAD(P)H at 340 nm. The activity of the OS17 polypeptide was measured using 3-HP as the substrate. The units/mL of total protein was calculated using the formula set forth in Example 1. The activity of the expressed OS17 polypeptide was calculated to be 0.061 U/mL of total protein. The reaction products were purified using a Sep Pak Vac column (Waters). The column was conditioned with 1 mL methanol and washed two times with 0.5 mL 0.1% TFA. […] The reaction products were analyzed by LC/MS.

Compound	activity of 3-hydroxypropionyl-CoA dehydratase enzyme on CoA ester [1]	CoA transferase activity, Units/mg [2] [Units/mg]	activity of the expressed OS17 polypeptide [3]
CC(C)(COP(=O)(O)OP(=O)(O)OC[C@H]1O[C@@H](n2cnc3c(N)ncnc32)[C@H](O)[C@@H]1OP(=O)(O)O)[C@@H](O)C(=O)NCCC(=O)NCCSC(=O)CCO [3-Hydroxypropionyl-CoA]	active	110	–
C=CC(=O)SCCNC(=O)CCNC(=O)[C@H](O)C(C)(C)COP(=O)(O)OP(=O)(O)OC[C@H]1O[C@@H](n2cnc3c(N)ncnc32)[C@H](O)[C@@H]1OP(=O)(O)O [Acrylyl-CoA]	–	118	–
CC(O)C(=O)SCCNC(=O)CCNC(=O)[C@H](O)C(C)(C)COP(=O)(O)OP(=O)(O)OC[C@H]1O[C@@H](n2cnc3c(N)ncnc32)[C@H](O)[C@@H]1OP(=O)(O)O (stereo partly shown) [Lactyl-CoA]	not active	211	–
CCC(=O)SCCNC(=O)CCNC(=O)[C@H](O)C(C)(C)COP(=O)(O)OP(=O)(O)OC[C@H]1O[C@@H](n2cnc3c(N)ncnc32)[C@H](O)[C@@H]1OP(=O)(O)O [Propionyl-CoA]	–	144	–
OS17 polypeptide: C. aurantiacus polypeptide having CoA synthase, dehydratase, and dehydrogenase activity (propionyl-CoA synthetase)	–	–	0.061 U/mL of total protein
